Results on one compound are retold here after patent US20150366966A1, “Stable Aqueous Solution” (SENJU PHARMACEUTICAL CO., LTD., priority 2013, published 2015).

One data set has as its target T1, PPARδ (Homo sapiens, UniProt Q03181).
T1 sequence (Q03181 1-441): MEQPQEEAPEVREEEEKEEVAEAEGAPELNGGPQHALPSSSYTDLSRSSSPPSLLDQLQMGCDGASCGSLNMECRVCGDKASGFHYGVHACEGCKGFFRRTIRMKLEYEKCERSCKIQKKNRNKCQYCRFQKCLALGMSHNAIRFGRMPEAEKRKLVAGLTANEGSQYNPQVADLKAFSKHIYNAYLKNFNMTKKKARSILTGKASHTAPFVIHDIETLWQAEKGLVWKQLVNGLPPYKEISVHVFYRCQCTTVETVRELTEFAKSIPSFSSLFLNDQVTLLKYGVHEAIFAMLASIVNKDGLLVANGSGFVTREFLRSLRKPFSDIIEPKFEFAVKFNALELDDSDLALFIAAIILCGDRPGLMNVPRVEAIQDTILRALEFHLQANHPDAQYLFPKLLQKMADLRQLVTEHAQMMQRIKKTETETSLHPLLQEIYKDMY
As to conditions: reported in WO 03/033493 and WO 2008/143254; cited from earlier work.

Data set [1] in a line: Solubility of compound A in water. The class given is physicochemical. How it is done:
This has already been shown by the fact that the heat stability of compound A in an aqueous solution decreases extremely when polysorbate 80 conventionally widely used as a solubilizer of poorly soluble drugs is added (see below-mentioned Experimental Example 2, Comparative Example 1).

Data set [2] can be described thus: Light stability of compound A in aqueous solution (residual ratio by HPLC after white light irradiation). The class given is physicochemical. How it is done:
An aqueous solution of compound A was prepared according to the following formulation. In 0.1% phosphate buffer was added a predetermined amount of tyloxapol, octoxynol, polysorbate 80, HCO-60 or MYS-40, and the mixture was adjusted to […] with sodium hydroxide. Compound A in the predetermined amount in the following formulation was dissolved in said solution, and the mixture was sterilized by filtration with a 0.22 μm membrane filter, and filled in a 5 mL colorless glass ampoule. Using a photostability testing device (model: LT-120A-WCD, manufactured by Nagano Science Co., Ltd.), the ampoule was exposed to white light (total illumination 12000 lux·h and 24000 lux·h), and the content of compound A in the glass ampoule was measured.
Compound A after storage was quantified by high performance liquid chromatography using the absolute calibration curve method (the Japanese Pharmacopoeia). […]
An aqueous solution of compound A was prepared according to the following formulation. […] The glass ampoule was placed, under light irradiation conditions and storage conditions at 80° C. for 1 week, and the content of each compound A was measured. Compound A was quantified in the same manner as in Experimental Example 1 and Experimental Example 2.

Structures are written as SMILES.

`Cc1cc2c(CCc3sc(-c4ccc(C(F)(F)F)cc4)nc3C(C)C)noc2cc1OCC(=O)O` [Compound A, (3-{2-[4-isopropyl-2-(4-trifluoromethyl)phenyl-5-thiazolyl]ethyl}-5-methyl-1,2-benzisoxazol-6-yl)oxyacetic acid]: on PPARδ, the “PPARδ agonist action (in words)” value is “PPARδ agonist”. The “solubility in water (in words)” value in data set [1] was “practically insoluble in water”. Moreover, the “stability to light in aqueous solution (in words)” value in data set [2] is “extremely unstable to light in an aqueous solution”.
